Data on nine compounds can be found in ChEMBL document CHEMBL5136971, “Virtual screening and in vitro validation identifies the first reported inhibitors of Salmonella enterica HPPK” (RSC Med Chem, 2021).

Activity calls are given as the source filed them. The rule behind the calls is not given here.

Assay [1] in a line: Inhibition of Salmonella enterica HPPK incubated for 20 mins in presence of ATP by Kinase Glo luminescence assay. (In general: Kinase-Glo measures the ATP left after a reaction by luminescence.)
Another assay concerns Salmonella enterica. As to the kind of experiment: Inhibition of Salmonella enterica HPPK at 50 uM incubated for 20 mins in presence of ATP by Kinase Glo luminescence assay.
Assay [2] is described as follows: Inhibition of Escherichia coli HPPK.
Assay [3] is described as follows: Binding affinity to Escherichia coli HPPK.
The subject of a further assay is Escherichia coli. The assay can be described thus: Inhibition of Escherichia coli HPPK at 50 uM incubated for 20 mins in presence of ATP by Kinase Glo luminescence assay.
Assay [4] in a line: Binding affinity to Salmonella enterica HPPK.
A short description of assay [5]: Inhibition of Salmonella enterica HPPK.

By IC50 is commonly meant the concentration that inhibits the measured activity by half. Turning to `O=C(NCc1n[nH]c(=O)c2ccccc12)c1cccc(Cl)c1`, the 50% inhibitory concentration (IC50) in assay [1] is 10400 nM. Besides, the “inhibition activity call (active/inactive)” value in the assay with Salmonella enterica is “Active”.

Broadly, the Kd is the concentration at which binding is half-saturated. Low readings indicate tighter binding, high ones weaker binding. For the compound `CC1(C)Nc2nc(N)[nH]c(=O)c2N=C1C(=O)NCCN1CC[C@@H](SC[C@H]2O[C@@H](n3cnc4c(N)ncnc43)[C@H](O)[C@@H]2O)C[C@@H]1C(=O)O`, in assay [2], the IC50 was 380 nM. This compound also showed a Kd in assay [3] of 190 nM.

As for `O=C(c1ccccc1F)N1CCN(c2ccc([N+](=O)[O-])c3ncccc23)CC1`, in the assay on Salmonella enterica, the “inhibition activity call (active/inactive)” value is “Active”.

Consider `Cc1ccc2c(C)c(C(=O)NCc3ccc(S(N)(=O)=O)cc3)oc2c1`, for which, in the assay on Escherichia coli, the inhibition result is “Active”. In addition, in the assay on Salmonella enterica, the “inhibition activity call (active/inactive)” value was “Active”.

Take `CC1(C)Nc2nc(N)[nH]c(=O)c2N=C1C(=O)NCCN1CCC(SC[C@H]2O[C@@H](n3cnc4c(N)ncnc43)[C@H](O)[C@@H]2O)CC1`: the IC50 in assay [2] was determined as 3200 nM. In addition, binding in assay [3] was characterised by a dissociation constant (Kd) of 2500 nM.

In the case of `Cc1cccc(NC(=O)CN2C(=O)N/C(=C\c3cccn3-c3ccccc3)C2=O)c1`, the “inhibition activity call (active/inactive)” value in the assay on Salmonella enterica was “Active”.

On to `O=C1CC(C(=O)Nc2cccc3ccccc23)C2(CCCCC2)O1` (stereo not given), for which the inhibition result in the assay with Escherichia coli was “Active”. The “inhibition activity call (active/inactive)” value in the assay on Salmonella enterica was “Active”.

Turning to `CCOC(=O)N1CCN(S(=O)(=O)c2ccc3c4c(cccc24)C(=O)N3)CC1`, the “inhibition activity call (active/inactive)” value with Salmonella enterica was “Active”.

The compound `Nc1nc2[nH]c(SCc3ccccc3F)nc2c(=O)[nH]1` gave a Kd in assay [4] of 450 nM. Further, the IC50 in assay [5] was 25000 nM.
